Among the data in patent publication EP4806900A2, “RAS INHIBITORS” (Revolution Medicines, Inc., priority 2019, dated 2021) are IC50 values, retold here.

Where “and” joins values, the source holds several entries; their conditions need not be identical. Identical values can stand only once.

The subject of one assay is NCI-H358 (K-Ras G12C). Briefly: CellTiter-Glo cell viability assay, NCI-H358. The class given is cell-based, human. Particulars: Homo sapiens, NCI-H358, Table 5; read-out: H358 Cell Viability assay data (K-Ras G12C, IC50). The method in brief:
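Compounds dispensed directly onto plated NCI-H358 cells; plates equilibrated to room temperature on day 5 before luminescence read-out. Signal normalized to mean DMSO control (%) and fitted by four-parameter logistic.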
A general note: Cellular ATP, detected with luciferase, serves as a proxy for viable cell number.
On to `C=CC(=O)N1CC[C@H](C(=O)N(C)[C@H](C(=O)N[C@H]2Cc3cccc(c3)-c3ccc4c(c3)c(c(-c3cccnc3[C@H](C)OC)n4CC)CC(C)(C)COC(=O)[C@@H]3CCCN(N3)C2=O)C(C)C)C1` [Compound A114], for which the IC50 (usually the concentration at which inhibition is half-maximal) fell in the range of 0.1 to 1 µM. Turning to `C=CC(=O)N1CC[C@H](C(=O)N(C)[C@H](C(=O)N[C@H]2Cc3cc(O)cc(c3)-c3ccc4c(c3)c(c(-c3cnn(C)c3[C@H](C)OC)n4CC)CC(C)(C)COC(=O)[C@@H]3CCCN(N3)C2=O)C(C)C)C1` [Compound A166], the IC50 was < 0.01 µM. Regarding `C=CC(=O)N1CC[C@H](C(=O)N(C)[C@H](C(=O)N[C@H]2C[C@H]3CN(CCO3)c3ccc4c(c3)c(c(-c3cccnc3[C@H](C)OC)n4CC)CC(C)(C)COC(=O)[C@@H]3CCCN(N3)C2=O)C(C)C)C1` [Compound A378], the IC50 was in the range of 0.1 to 1 µM.

On to `CO[C@@H](C)c1ncccc1-c1c2c3cc(ccc3n1CC(F)(F)F)-c1nnc(o1)C[C@H](NC(=O)[C@H](C(C)C)N(C)C(=O)[C@H]1CCN(C(=O)C#CC(C)(C)N3CCC3)C1)C(=O)N1CCC[C@H](N1)C(=O)OCC(C)(C)C2` [Compound A423], for which the IC50 lay in the range of 0.01 to 0.1 µM. Regarding `C=CC(=O)N1CC[C@H](C(=O)N(C)[C@H](C(=O)N[C@H]2CC3=NN=C(O3)c3ccc4c(c3)c(c(-c3cccnc3[C@H](C)OCC)n4CC(F)(F)F)CC(C)(C)COC(=O)[C@@H]3CCCN(N3)C2=O)C(C)C)C1` [Compound A424], the half-maximal inhibitory concentration (IC50) lay in the range of 0.1 to 1 µM. Regarding `C=CC(=O)N1CC[C@H](C(=O)N(C)C(C(=O)N[C@H]2C[C@H]3CN(CCO3)c3ccc4c(c3)c(c(-c3cccnc3[C@H](C)OC)n4CC)CC(C)(C)COC(=O)[C@@H]3CCCN(N3)C2=O)C(C)C)C1` (stereo partly drawn) [Compound A507], the IC50 was 0.1 to 1 µM.

The same assay, now with this note: Homo sapiens, NCI-H358, read-out: H358 Cell Viability assay data (K-Ras G12C, IC50, uM), Table 5.
As for `C=CC(=O)N1CC[C@H](C(=O)N(C)[C@H](C(=O)N[C@H]2Cc3cc(O)cc(c3)-c3ccc4c(c3)c(c(-c3cnccc3[C@H](C)OC)n4CC)CC(C)(C)COC(=O)[C@@H]3CCCN(N3)C2=O)C(C)C)C1` [Compound A112], the IC50 is < 0.01 µM.

For the compound `CCn1c(-c2cnccc2COC)c2c3cc(ccc31)-c1ccnc(c1)C[C@H](NC(=O)[C@H](C(C)C)N(C)C(=O)[C@H]1CCN(C(=O)C#CCN(C)C)C1)C(=O)N1CCC[C@H](N1)C(=O)OCC(C)(C)C2` [Compound A130], the IC50 fell in the range of 0.01 to 0.1 µM. With `C=CS(=O)(=O)N1CC[C@H](C(=O)N(C)[C@H](C(=O)N[C@H]2Cc3cc(O)cc(c3)-c3ccc4c(c3)c(c(-c3cccnc3[C@H](C)OC)n4CC)CC(C)(C)COC(=O)[C@@H]3CCCN(N3)C2=O)C(C)C)C1` [Compound A132], the IC50 was < 0.01 µM. In the case of `CCn1c(-c2cccnc2COC)c2c3cc(ccc31)-c1cc(O)cc(c1)C[C@H](NC(=O)[C@H](C(C)C)N(C)C(=O)[C@H]1CCN(C(=O)C#CCOC)C1)C(=O)N1CCC[C@H](N1)C(=O)OCC(C)(C)C2` [Compound A135], the IC50 was < 0.01 µM.

Consider `C=CC(=O)N1CC[C@H](C(=O)N(C)[C@H](C(=O)N[C@H]2Cc3cc(O)cc(c3)-c3ccc4c(c3)c(c(-c3cc(CN(C)C)cnc3COC)n4CC)CC(C)(C)COC(=O)[C@@H]3CCCN(N3)C2=O)C(C)C)C1` [Compound A149], for which the IC50 lay in the range of 0.01 to 0.1 µM. Same read-out and setting: the same measure for `CCn1c(-c2cccnc2COC)c2c3cc(ccc31)-c1cc(C)cc(c1)C[C@H](NC(=O)[C@H](C(C)C)N(C)C(=O)[C@H]1CCN(C(=O)C#CCN(C)C)C1)C(=O)N1CCC[C@H](N1)C(=O)OCC(C)(C)C2` [Compound A157]: < 0.01 µM. Turning to `C=CC(=O)N1CC[C@H](C(=O)N(C)[C@H](C(=O)N[C@H]2Cc3cc(O)cc(c3)-c3ccc4c(c3)c(c(-c3cccnc3)n4C3CC3)CC(C)(C)COC(=O)[C@@H]3CCCN(N3)C2=O)C(C)C)C1` [Compound A160], the IC50 lay within 0.1 to 1 µM. With `CCn1c(-c2cccnc2COC)c2c3cc(ccc31)-c1cc(O)cc(c1)C[C@H](NC(=O)[C@H](C(C)C)N(C)C(=O)[C@H]1CCN(C(=O)/C=C\CN(C)C)C1)C(=O)N1CCC[C@H](N1)C(=O)OCC(C)(C)C2` [Compound A161], the IC50 was > 1 µM.

For the compound `C=CC(=O)N1CC[C@H](C(=O)N(C)[C@H](C(=O)N[C@H]2Cc3cc(O)cc(c3)-c3ccc4c(c3)c(c(-c3cc(C)cnc3[C@H](C)OC)n4CC)CC(C)(C)COC(=O)[C@@H]3CCCN(N3)C2=O)C(C)C)C1` [Compound A167], the IC50 was < 0.01 µM.

Turning to `CCn1c(-c2cccnc2[C@H](C)OC)c2c3cc(ccc31)-c1cc(O)cc(c1)C[C@H](NC(=O)[C@H](C(C)C)N(C)C(=O)[C@H]1CCN(C(=O)C#CCN3CCOCC3)C1)C(=O)N1CCC[C@H](N1)C(=O)OCC(C)(C)C2` [Compound A182], the IC50 is < 0.01 µM.

With `C=CC(=O)Nc1ccc(C(=O)N(C)[C@H](C(=O)N[C@H]2Cc3cc(O)cc(c3)-c3ccc4c(c3)c(c(-c3cccnc3[C@H](C)OC)n4CC)CC(C)(C)COC(=O)[C@@H]3CCCN(N3)C2=O)C(C)C)cn1` [Compound A250], the IC50 is < 0.01 µM. Still for that read-out and setting: next, `C=CC(=O)N1CC[C@H](C(=O)N(C)[C@H](C(=O)N[C@H]2Cc3nc(cs3)-c3ccc4c(n3)c(c(-c3cccnc3[C@H](C)OC)n4CC)CC(C)(C)COC(=O)[C@@H]3CCCN(N3)C2=O)C(C)C)C1` [Compound A347, (2S)-N-[(7S,13S)-21-ethyl-20-{2-[(1S)-1-methoxyethyl]pyridin-3-yl}-17,17-dimethyl-8,14-dioxo-15-oxa-4-thia-9,21,25,27,28-pentaazapentacyclo[17.5.2.1^{2,5}.1^{9,13}.0^{22,26}]octacosa-1(25),2,5(28),19,22(26),23-hexaen-7-yl]-3-methyl-2-{N-methyl-1-[(3S)-1-(prop-2-enoyl)pyrrolidin-3-yl]formamido}butanamide]: 0.1 to 1 µM; `CCn1c(-c2cccnc2[C@H](C)OC)c2c3cc(ccc31)-c1csc(n1)C[C@H](NC(=O)[C@H](C(C)C)N(C)C(=O)N(C)C1CN(C(=O)/C=C/C(C)(C)O)C1)C(=O)N1CCC[C@H](N1)C(=O)OCC(C)(C)C2` [Compound A350]: 0.1 to 1 µM; `CCn1c(-c2cccnc2C(C)OC)c2c3cc(ccc31)-c1cccc(c1)CC(NC(=O)C(C(C)C)N1CCC3(CCN(C(=O)C#CC(C)(C)N4CCC4)C3)C1=O)C(=O)N1CCCC(N1)C(=O)OCC(C)(C)C2` (stereo not drawn) [Compound A365]: < 0.01 µM.

For the compound `CCn1c(-c2cccnc2[C@H](C)OC)c2c3cc(ccc31)-c1csc(n1)C[C@H](NC(=O)[C@H](C(C)C)N(C)C(=O)N1CC(N(C)C(=O)C#CC(C)(C)N3CCC3)C1)C(=O)N1CCC[C@H](N1)C(=O)OCC(C)(C)C2` [Compound A379], the IC50 was < 0.01 µM.

Regarding `C=CC(=O)N1CCN(C(=O)N(C)[C@H](C(=O)N[C@H]2Cc3nc(cs3)-c3ccc4c(c3)c(c(-c3cccnc3[C@H](C)OC)n4CC(F)(F)F)CC(C)(C)COC(=O)[C@@H]3CCCN(N3)C2=O)C(C)C)CC1` [Compound A464], the IC50 is < 0.01 µM.

Still in this assay, the particulars now being: Table 5; read-out: H358 Cell Viability assay data (K-Ras G12C, IC50).
In the case of `C=CC(=O)N1CC[C@H](C(=O)N(C)[C@H](C(=O)N[C@H]2Cc3cc(O)cc(c3)-c3ccc4c(c3)c(c(-c3cnn(C)c3)n4CC)CC(C)(C)COC(=O)[C@@H]3CCCN(N3)C2=O)C(C)C)C1` [Compound A99], the 50% inhibitory concentration (IC50) fell in the range of 0.01 to 0.1 µM. As to `C=CC(=O)N1CC[C@H](C(=O)N(C)[C@H](C(=O)N[C@H]2Cc3cc(O)cc(c3)-c3ccc4c(c3)c(c(-c3cn(C)cn3)n4CC)CC(C)(C)COC(=O)[C@@H]3CCCN(N3)C2=O)C(C)C)C1` [Compound A113], the half-inhibitory concentration (IC50) is 0.1 to 1 µM. On the same count and under the same terms, the same measure for `CC#CC(=O)N1CC[C@H](C(=O)N(C)[C@H](C(=O)N[C@H]2Cc3cc(O)cc(c3)-c3ccc4c(c3)c(c(-c3cccnc3[C@H](C)OC)n4CC)CC(C)(C)COC(=O)[C@@H]3CCCN(N3)C2=O)C(C)C)C1` [Compound A145, (2S)-2-{1-[(3S)-1-(but-2-ynoyl)pyrrolidin-3-yl]-N-methylformamido}-N-[(8S,14S,20M)-22-ethyl-4-hydroxy-21-{2-[(1S)-1-methoxyethyl]pyridin-3-yl}-18,18-dimethyl-9,15-dioxo-16-oxa-10,22,28-triazapentacyclo[18.5.2.1^2,^6.1^10,^14.0^23,^27]nonacosa-1(26),2,4,6(29),20,23(27),24-heptaen-8-yl]-3-methylbutanamide]: < 0.01 µM and 0.01 to 0.1 µM. In the case of `CCn1c(-c2cncnc2C(C)C)c2c3cc(ccc31)-c1cc(O)cc(c1)C[C@H](NC(=O)[C@H](C(C)C)N(C)C(=O)[C@H]1CCN(C(=O)C#CCN(C)C)C1)C(=O)N1CCC[C@H](N1)C(=O)OCC(C)(C)C2` [Compound A155], the half-inhibitory concentration (IC50) was < 0.01 µM and 0.01 to 0.1 µM. As to `C=CC(=O)N1CC2CCC1CN2C(=O)N(C)[C@H](C(=O)N[C@H]1Cc2nc(cs2)-c2ccc3c(c2)c(c(-c2cccnc2[C@H](C)OC)n3CC)CC(C)(C)COC(=O)[C@@H]2CCCN(N2)C1=O)C(C)C` [Compound A420], the IC50 is 0.01 to 0.1 µM.

Staying with this assay, now noted: read-out: H358 Cell Viability assay data (K-Ras G12C, IC50); Table 5.
Take `C=CC(=O)Nc1ccc(C(=O)N(C)[C@H](C(=O)N[C@H]2Cc3cc(O)cc(c3)-c3ccc4c(c3)c(c(-c3cccnc3[C@H](C)OC)n4CC)CC(C)(C)COC(=O)[C@@H]3CCCN(N3)C2=O)C(C)C)cn1` [Compound A336]: the IC50 was < 0.01 µM. Still for that read-out and setting: next, `C=CC(=O)N1CCN(C(=O)N(C)[C@H](C(=O)N[C@H]2Cc3nc(cs3)-c3ccc4c(c3)c(c(-c3cccnc3[C@H](C)OC)n4CC(F)(F)F)CC(C)(C)COC(=O)[C@@H]3CCCN(N3)C2=O)C(C)C)CC1` [Compound A465]: < 0.01 µM; `C=CC(=O)N1CC[C@H](C(=O)N(C)[C@H](C(=O)N[C@H]2Cc3cccc(c3)-c3ccc4c(c3)c(c(-c3cc(C5=CCN(C)CC5)cnc3[C@H](C)OC)n4CC)CC(C)(C)COC(=O)[C@@H]3CCCN(N3)C2=O)C(C)C)C1` [Compound A514]: 0.1 to 1 µM.
